Reference: US6124431A, “Peptide derivatives” (Teikoku Hormone Mfg. Co., Ltd., priority 1993, dated 2000)

Tested on: mouse leukemia P388 cells
Assay: Assay of antitumor activity (increase in life span of mice implanted with P388 leukemia)
Type: in vivo
Conditions: CDF1 mice, P388 cells implanted i.p.; compound i.p. on day 1 and day 5; observed for 60 days; ILS relative to dolastatin 10 = 100
Method: (1) Assay of antitumor activity
0.1 ml (10^6 cells/mouse) portions of mouse leukemia P388 cells were implanted intraperitoneally into 7-week-old CDF1 mice. […] From the results were calculated increases in life span (ILS, %) according to the following equation. In the following equation, T means median survival days of the chemical administration group, and C means median survival days of the control group. [formula]
Antitumor activity is shown as the relative ratio in the case where the ILS of dolastatin 10 is supposed to be 100.

## dolastatin 10
  Antitumor activity (relative ratio of ILS, ILS of dolastatin 10 supposed to be 100): 100
